Source: the NIST ThermoML archive (doi:10.1021/je050296u)
± gives the expanded uncertainty stated by the source.

assay: mn = molality of the nth substance listed, in mol/kg; settings: 298.15 K; 101.33 kPa; Liquid; Calvet calorimetry; m1 = 0.1

SMILES	apparent molar enthalpy [kcal/mol]
NCC(=O)O [2-aminoacetic acid] + O	3.38 ± 0.0574
C[C@H](N)C(=O)O [(S)-2-aminopropanoic acid] + O	1.81 ± 0.0359
N[C@@H](CO)C(=O)O [L-serine] + O	2.71 ± 0.0478
